# From article PMC9925730, “Controlled sequential in situ self-assembly and disassembly of a fluorogenic cisplatin prodrug for cancer theranostics” (Nature Communications, 2023)
# Values joined by “and” are separate entries in the source; they are usually repeats but may differ in a detail not shown here. Equal entries are not always repeated.
# Experiments:
# ALP [1] = assay: Dephosphorylated efficacy of P-CyPt towards varying concentrations of ALP (NIR fluorescence); assay type: biochemical; conditions: 250 μM
# HeLa cells = assay: Distribution of Pt element in subcellular organelles (ICP-OES); assay type: cell-based
# Method: Supplementary Table 3. Comparison of the distribution of Pt element in different subcellular organelles between P-CyPt and CDDP. a Subcellular Amount of Pt distributed in a Percentage of Pt distributed in organelles single cell’s organelle (fmol) b a single cell’s organelle (%) c […]
# a HeLa cells were incubated with P-CyPt or CDDP (10 μM) for 1 h. After that, the cells were washed with PBS for three times, replaced with blank medium and cultured for another 24 h. The cells were trypsinized, collected, and the cell numbers were counted.
# The cell pellets were dispersed in PBS buffer, lysed via ultrasound sonication, and centrifuged at different speed to separate membrane, nucleus, lysosome together with mitochondria, and cytoplasm. The concentration of Pt element in each organelle fraction was then measured by ICP-OES. Values denote mean ± s.d. (n = 3 independent […]
# b The amount of Pt in a single HeLa cell’s subcellular organelle was calculated by dividing the total amount of Pt element in different subcellular organelles to the cell […]
# c Percentage of Pt distributed in a single HeLa cell’s subcellular organelles was calculated by dividing the amount of Pt in a single cell’s subcellular organelles by the amount of Pt in a single cell (sum of organelles). […]
# For Pt distribution analysis, the cells were treated with P-CyPt (10 μM) or CDDP (10 μM) for 1 h, and then washed with PBS for three times, followed by incubation with fresh medium for another 24 h. After that, cells were washed gently with 2 mL PBS once. The cells were trypsinized, centrifuged and counted. The cell lysates were separated according to a reported fragmentation procedure to obtained different cell fractions, including N (nuclei), M (plasma membrane), L (lysosomes and mitochondria) and C (cytosol). The Cells and different cell fractions were digested with concentrated HNO3 (65~70%) and HCl (36~38%) at 90 °C for 24 h. The solution was diluted to 5 mL 2% HNO3 and 5% HCl solution, and the concentration of Pt element was measured by ICP-OES, which was further applied to calculate the amount of Pt in cells and subcellular organelles. […]
# The count number for each flow cytometry analysis was ~5000 to 10000, and the data was processed using FlowJo software.
# Evaluation of the ability to break DNA double strand. Supercoiled pBR322 plasmi d DNA (20 ng μL–1) was incubated with blank Tris buffer (i) or Tris buffer containing GSH (2 mM, ii), Tris buffer containing CDDP (100 μM, iii), Tris buffer containing GSH (2 mM) and CDDP (100 μM, iv), Tris buffer containing P-CyPt (100 μM, v), Tris buffer containing P-CyPt (100 μM) and GSH (2 mM, vi), Tris buffer containing P-CyPt (100 μM) and ALP (500 U/L, vii), and Tris buffer containing P-CyPt (100 μM), ALP (500 U/L) and GSH (2 mM, viii) or incubated with P-CyPt ((0, 1, 2, 5, 10, 20, 50 and 100 μM, from i-viii) respectively in the presence of ALP (500 U/L), followed by incubation with GSH (2 mM) in Tris buffer) at 37 °C for 16 h. Then, the reactions (10 μL) were quenched by loading buffer (2 μL, including 30 mM EDTA, 36% glycerol, 0.05% xylene cyanol FF, and 0.05% bromophenol blue). The resulting solutions and 1kb-I DNA ladder (GsDL10001) were loaded into native agarose gel (1%) and subjected to electrophoresis in a TAE buffer (40 mM Tris acetate, 1 mM EDTA). The
# s.c. HeLa tumors [2] = assay: PA imaging of s.c. HeLa tumors in vivo; parameters: species or system mice; conditions: i.v., 2 h post-injection
# Method: (§1) (100 μM, in 200 μL saline). Whole body FL images of mice prior to (pre) and at 1 h, 2 h, 4 h, 8 h post injection of P-CyPt or […] acquired on the IVIS Lumina XR III imaging system, using a 660 nm excitation filter and a 750 ± 50 nm emission filter. Each experiment was conducted in three mice. The FL intensities were quantified by the region of interest (ROI) measurement using Living Image Software (4.5.2, PerkinElmer, MA, U.S.A). […] (500 μM, in 200 μL saline). The PA images of the s.c. HeLa tumors in mice prior to (pre), and at 1, 2, 4 h post injection were captured on the Vevo 2100 LAZR system (FUJIFILM VisualSonics), with excitation at 700 and 750 nm. The PA intensities were quantified by the equipped software.
# s.c. HeLa tumors [3] = assay: NIR FL imaging of s.c. HeLa tumors in vivo; parameters: species or system mice; conditions: i.v. 100 μM, 200 μL
# Method: as §1
# ALP [4] = assay: Enzyme kinetics of P-CyPt towards ALP (Lineweaver-Burk); assay type: biochemical; conditions: Supplementary Fig. 5b; for 1/v, mean: mean of 3 samples
# ALP [5] = molecular target: T1, ALP (Bos taurus, UniProt P19111); assay: as above; assay type: biochemical; conditions: ALP (20 U/L)
# T1 construct: Alkaline phosphatase from bovine; purchased Sigma-Aldrich; host or cells: bovine intestinal mucosa (tissue-derived)
# T1 sequence (P19111 20-533): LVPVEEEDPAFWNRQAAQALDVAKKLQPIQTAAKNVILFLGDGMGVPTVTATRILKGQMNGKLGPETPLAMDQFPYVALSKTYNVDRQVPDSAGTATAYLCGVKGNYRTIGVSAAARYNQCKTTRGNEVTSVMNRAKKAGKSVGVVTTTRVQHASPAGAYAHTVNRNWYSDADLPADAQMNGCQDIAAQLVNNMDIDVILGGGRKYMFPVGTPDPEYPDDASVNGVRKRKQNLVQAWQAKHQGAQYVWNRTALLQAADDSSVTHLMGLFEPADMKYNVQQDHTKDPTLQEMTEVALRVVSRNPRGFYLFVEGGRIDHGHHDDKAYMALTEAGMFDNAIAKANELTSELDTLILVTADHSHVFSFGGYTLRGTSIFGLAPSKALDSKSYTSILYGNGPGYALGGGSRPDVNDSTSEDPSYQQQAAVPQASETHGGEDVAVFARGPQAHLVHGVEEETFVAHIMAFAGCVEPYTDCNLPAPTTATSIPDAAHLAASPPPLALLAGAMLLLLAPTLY
# [6] = Cytoplasm (C), individual samples
# [7] = Cytoplasm (C), mean of 3 samples
# [8] = HeLa, 10 μM 1 h, then blank medium 24 h
# [9] = Membrane(M), individual samples
# [10] = Mito&Lyso (L), individual samples
# [11] = Mito&Lyso (L), mean of 3 samples
# [12] = Nucleus (N), individual samples
structure (smiles),measurement,setting,value
CC1(C)C(/C=C/C2=C3Oc4cc(OP(=O)(O)O)c(Cl)cc4C=C3CCC2)=[N+](CCCNC(=O)[C@@H](Cc2ccccc2)NC(=O)[C@@H](Cc2ccccc2)NC(=O)CCC(=O)[O][Pt]([NH2])([NH2])([OH])([Cl])[Cl])c2ccccc21 [P-CyPt],"normalized signal over time (section 'Supplementary Fig. 2c'), mean of 3",ALP [1]; time 260 min,0.996
same,"normalized signal over time (section 'Supplementary Fig. 2c'), mean of 3",ALP [1]; time 280 min,0.9965
same,"normalized signal over time (section 'Supplementary Fig. 2c'), mean of 3",ALP [1]; time 320 min,0.9972
same,"normalized signal over time (section 'Supplementary Fig. 2c'), mean of 3",ALP [1]; time 440 min,0.9986
same,Amount of Pt in subcellular fraction,HeLa cells; [6],10.4601 fmol and 9.6958 fmol and 8.113 fmol
same,Distribution of Pt in subcellular fraction,HeLa cells; [6],43.0958% and 39.9467% and 33.4263%
same,Amount of Pt in subcellular fraction,HeLa cells; [7],9.42 fmol
same,Distribution of Pt in subcellular fraction,HeLa cells; [7],38.82%
same,Amount of Pt distributed in a single cell's organelle: Cytoplasm,HeLa cells; [8],9.42 ± 1.20 fmol
same,Amount of Pt distributed in a single cell's organelle: Lysosome & Mitochondria,HeLa cells; [8],6.34 ± 0.81 fmol
same,Amount of Pt distributed in a single cell's organelle: Membrane,HeLa cells; [8],1.46 ± 0.19 fmol
same,Amount of Pt distributed in a single cell's organelle: Nucleus,HeLa cells; [8],7.05 ± 0.90 fmol
same,Percentage of Pt distributed in a single cell's organelle: Cytoplasm (cytosol),HeLa cells; [8],38.82%
same,Percentage of Pt distributed in a single cell's organelle: Lysosome & Mitochondria,HeLa cells; [8],26.11% and ~ 26.11%
same,Percentage of Pt distributed in a single cell's organelle: Membrane,HeLa cells; [8],6.02%
same,Percentage of Pt distributed in a single cell's organelle: Nucleus,HeLa cells; [8],29.05% and ~ 29.05%
same,Amount of Pt in subcellular fraction,HeLa cells; [9],0.7699 fmol and 1.266 fmol and 2.345 fmol
same,Distribution of Pt in subcellular fraction,HeLa cells; [9],3.1718% and 5.2172% and 9.6606%
same,Amount of Pt in subcellular fraction,"HeLa cells; Membrane(M), mean of 3 samples",1.46 fmol
same,Distribution of Pt in subcellular fraction,"HeLa cells; Membrane(M), mean of 3 samples",6.02%
same,Amount of Pt in subcellular fraction,HeLa cells; [10],6.19 fmol and 6.277 fmol and 6.546 fmol
same,Distribution of Pt in subcellular fraction,HeLa cells; [10],25.5012% and 25.8599% and 26.9676%
same,Amount of Pt in subcellular fraction,HeLa cells; [11],6.34 fmol
same,Distribution of Pt in subcellular fraction,HeLa cells; [11],26.11%
same,Amount of Pt in subcellular fraction,HeLa cells; [12],6.061 fmol and 7.285 fmol and 7.806 fmol
same,Distribution of Pt in subcellular fraction,HeLa cells; [12],24.9722% and 30.0159% and 32.1624%
same,Amount of Pt in subcellular fraction,"HeLa cells; Nucleus (N), mean of 3 samples",7.05 fmol
same,Distribution of Pt in subcellular fraction,"HeLa cells; Nucleus (N), mean of 3 samples",29.05%
same,tumor PA intensity at 700 nm higher than with Pt^IVNPs,s.c. HeLa tumors [2],~3.4 fold
same,tumor PA intensity at 750 nm higher than with Pt^IVNPs,s.c. HeLa tumors [2],~4.3 fold
same,quantified FL intensity of HeLa tumors (Fig. 4c),s.c. HeLa tumors [3]; 1 h,1130000000
same,quantified FL intensity of HeLa tumors (Fig. 4c),s.c. HeLa tumors [3]; 2 h,1040000000
same,quantified FL intensity of HeLa tumors (Fig. 4c),s.c. HeLa tumors [3]; 4 h,886000000
same,"1/v, single samples (sample-1 to sample-3)",ALP [4]; 1/S [μM] 0.2,7.131 min/µM and 6.758 min/µM and 6.78 min/µM
same,"1/v, mean",ALP [4]; 1/S [μM] 0.2,6.889 min/µM
same,"1/v, single samples (sample-1 to sample-3)",ALP [4]; 1/S [μM] 0.25,8.023 min/µM and 8.58 min/µM and 6.977 min/µM
same,"1/v, mean",ALP [4]; 1/S [μM] 0.25,7.860 min/µM
same,"1/v, single samples (sample-1 to sample-3)",ALP [4]; 1/S [μM] 0.333333,10.0959 min/µM and 10.7285 min/µM and 10.3072 min/µM
same,"1/v, mean",ALP [4]; 1/S [μM] 0.333333,10.377 min/µM
same,"1/v, single samples (sample-1 to sample-3)",ALP [4]; 1/S [μM] 0.5,12.1342 min/µM and 13.921 min/µM and 15.7076 min/µM
same,"1/v, mean",ALP [4]; 1/S [μM] 0.5,13.921 min/µM
same,"1/v, single samples (sample-1 to sample-3)",ALP [4]; 1/S [μM] 1,22.8038 min/µM and 25.6597 min/µM and 28.5158 min/µM
same,"1/v, mean",ALP [4]; 1/S [μM] 1,25.660 min/µM
same,"1/v, single samples (sample-1 to sample-3)",ALP [4]; 1/S [μM] 2,49.1562 min/µM and 54.4739 min/µM and 57.4911 min/µM
same,"1/v, mean",ALP [4]; 1/S [μM] 2,53.707 min/µM
same,Vmax,ALP [5],0.55 µM/min
same,Km,ALP [5]; P-CyPt 0.5-5.0 μM,14 µM
